Measured values published in PubChem BioAssay AID248 (DTP/NCI, 2004).
Inconclusive results and toxic doses are left out. No stated cut-off is given here; in the data, active means T/C of 150% or more; inactive means T/C below 125%.

Tested on: L1210 leukemia ip in BDF1 mice, survival T/C
Test: NCI In Vivo Anticancer Drug Screen. Data for tumor model L1210 Leukemia (intraperitoneal) in B6D2F1 (BDF1) mice
Conditions: endpoint: mean survival time, higher = longer survival
Method in brief: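 Each compound was tested against a transplantable tumor grown in mice. The endpoint was survival, with treated animals benchmarked against vehicle controls as a simple ratio.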

[1] = dose: 100.0 mg/kg/injection, schedule: Q04DX003 (ip), vehicle: saline with Tween-80
[2] = dose: 200.0 mg/kg/injection, schedule: Q04DX003 (ip), vehicle: saline with Tween-80
[3] = dose: 400.0 mg/kg/injection, schedule: Q04DX003 (ip), vehicle: saline with Tween-80
[4] = dose: 100.0 mg/kg/injection, schedule: Q01DX009 (ip), vehicle: Klucel (hydroxypropylcellulose) (HPC)
[5] = dose: 100.0 mg/kg/injection, schedule: Q04DX003 (ip), vehicle: Klucel (hydroxypropylcellulose) (HPC)
[6] = dose: 200.0 mg/kg/injection, schedule: Q01DX009 (ip), vehicle: Klucel (hydroxypropylcellulose) (HPC)
[7] = dose: 200.0 mg/kg/injection, schedule: Q04DX003 (ip), vehicle: Klucel (hydroxypropylcellulose) (HPC)
[8] = dose: 400.0 mg/kg/injection, schedule: Q01DX009 (ip), vehicle: Klucel (hydroxypropylcellulose) (HPC)
[9] = dose: 400.0 mg/kg/injection, schedule: Q04DX003 (ip), vehicle: Klucel (hydroxypropylcellulose) (HPC)
[10] = dose: 100.0 mg/kg/injection, schedule: Q01DX009 (ip), vehicle: saline with Tween-80
[11] = dose: 200.0 mg/kg/injection, schedule: Q01DX009 (ip), vehicle: saline with Tween-80
[12] = dose: 400.0 mg/kg/injection, schedule: Q01DX009 (ip), vehicle: saline with Tween-80
[13] = dose: 100.0 mg/kg/injection, schedule: Q01DX001 (ip), vehicle: saline
[14] = dose: 200.0 mg/kg/injection, schedule: Q01DX001 (ip), vehicle: saline
[15] = dose: 50.0 mg/kg/injection, schedule: Q01DX001 (ip), vehicle: saline
[16] = dose: 400.0 mg/kg/injection, schedule: Q01DX001 (ip), vehicle: saline

Measured: T/C

CCCCCCCCCCCCCCCC(=O)NOCc1cscn1
inactive: dose: 100.0 mg/kg/injection, schedule: Q01DX001 (ip), vehicle: other 104 % of control | dose: 100.0 mg/kg/injection, schedule: Q04DX003 (ip), vehicle: acetone 93 % of control | dose: 200.0 mg/kg/injection, schedule: Q01DX001 (ip), vehicle: other 94 % of control | dose: 200.0 mg/kg/injection, schedule: Q04DX003 (ip), vehicle: acetone 93 % of control | dose: 400.0 mg/kg/injection, schedule: Q01DX001 (ip), vehicle: other 98 % of control | dose: 400.0 mg/kg/injection, schedule: Q04DX003 (ip), vehicle: acetone 98 % of control

CCCCOCC(=O)OCCCC
inactive: dose: 100.0 mg/kg/injection, schedule: Q01DX009 (ip), vehicle: saline 103 % of control | [1] 93 % of control | dose: 200.0 mg/kg/injection, schedule: Q01DX009 (ip), vehicle: saline 105 % of control | [2] 94 % of control | dose: 400.0 mg/kg/injection, schedule: Q01DX009 (ip), vehicle: saline 87 % of control | [3] 93 % of control

CC(=O)OCC(COC(C)=O)=C1N=C(c2ccccc2)OC1=O
inactive: [4] 103 % of control | [5] 95 % of control | [6] 106 % of control | [7] 95 % of control | [8] 107 % of control | [9] 97 % of control

CC1(C#N)CCC(CCc2ccccc2)C(=O)C1 (stereo unspecified)
inactive: dose: 75.0 mg/kg/injection, schedule: Q01DX001 (ip), vehicle: saline 109 % of control | dose: 75.0 mg/kg/injection, schedule: Q01DX009 (ip), vehicle: saline 99 % of control | dose: 150.0 mg/kg/injection, schedule: Q01DX001 (ip), vehicle: saline 95 % of control | dose: 150.0 mg/kg/injection, schedule: Q01DX009 (ip), vehicle: saline 94 % of control | dose: 300.0 mg/kg/injection, schedule: Q01DX001 (ip), vehicle: saline 92 % of control | dose: 300.0 mg/kg/injection, schedule: Q01DX009 (ip), vehicle: saline 96 % of control

CC(O)(/C=C\c1ccccc1)c1ccccc1 (stereo unspecified)
inactive: [10] 104 % of control | [1] 103 % of control | [11] 102 % of control | [2] 101 % of control | [12] 93 % of control | [3] 108 % of control

O=C(COc1cccc(Cl)c1)Nc1ccc(C(=O)CCl)cc1
inactive: dose: 100.0 mg/kg/injection, schedule: Q01DX001 (ip), vehicle: gum acacia 90 % of control | dose: 200.0 mg/kg/injection, schedule: Q01DX001 (ip), vehicle: gum acacia 100 % of control | dose: 400.0 mg/kg/injection, schedule: Q01DX001 (ip), vehicle: gum acacia 99 % of control

CCC(Cl)COP(=O)(OCC(Cl)CC)C(C)P(=O)(OCC(Cl)CC)OCC(Cl)CC (stereo unspecified)
inactive: dose: 62.5 mg/kg/injection, schedule: Q04DX003 (ip), vehicle: Klucel (hydroxypropylcellulose) (HPC) 96 % of control | dose: 125.0 mg/kg/injection, schedule: Q04DX003 (ip), vehicle: Klucel (hydroxypropylcellulose) (HPC) 97 % of control | dose: 250.0 mg/kg/injection, schedule: Q04DX003 (ip), vehicle: Klucel (hydroxypropylcellulose) (HPC) 96 % of control

CCOC(=O)NNc1ccccc1
inactive: [13] 102 % of control | [14] 97 % of control

Cc1cc(=O)c2cc(Cc3ccc(N)cc3)ccc2[nH]1
inactive: [13] 101 % of control | [14] 108 % of control

N#CC(NC(=O)NCCO)c1ccccc1 (stereo unspecified)
inactive: [1] 107 % of control | [2] 96 % of control | [3] 101 % of control

O=C(NNC(=O)c1ccc([N+](=O)[O-])cc1)c1ccccc1
inactive: [4] 96 % of control | [5] 105 % of control | [6] 101 % of control | [7] 103 % of control | [8] 94 % of control | [9] 100 % of control

COc1ccccc1-n1c(O)c(N=Nc2ccc(Cl)cc2)c(=O)n(-c2ccc(I)cc2)c1=S
inactive: dose: 37.5 mg/kg/injection, schedule: Q01DX001 (ip), vehicle: Klucel (hydroxypropylcellulose) (HPC) 94 % of control | dose: 75.0 mg/kg/injection, schedule: Q01DX001 (ip), vehicle: Klucel (hydroxypropylcellulose) (HPC) 94 % of control | dose: 150.0 mg/kg/injection, schedule: Q01DX001 (ip), vehicle: Klucel (hydroxypropylcellulose) (HPC) 90 % of control

Nc1nc(N)c(C=O)c(Nc2ccc(I)cc2)n1
inactive: [15] 100 % of control | [13] 100 % of control | [14] 123 % of control | [16] 117 % of control

O=C(Oc1ccccc1)C(O)CO (stereo unspecified)
inactive: [10] 92 % of control | [11] 96 % of control | [12] 93 % of control

O=C(Nc1cccc2ccccc12)c1ccc([N+](=O)[O-])s1
inactive: dose: 50.0 mg/kg/injection, schedule: Q01DX005 (ip), vehicle: water 87 % of control | dose: 100.0 mg/kg/injection, schedule: Q01DX005 (ip), vehicle: water 89 % of control | dose: 200.0 mg/kg/injection, schedule: Q01DX005 (ip), vehicle: water 87 % of control | dose: 400.0 mg/kg/injection, schedule: Q01DX005 (ip), vehicle: water 91 % of control

Cc1[nH]c(N)nc(=S)c1CCCNc1ccc(C(=O)NC(CCC(=O)O)C(=O)O)cc1 (stereo unspecified)
inactive: [15] 104 % of control | [13] 98 % of control | [4] 93 % of control | [5] 93 % of control | [14] 101 % of control | [6] 104 % of control | [7] 93 % of control | [16] 98 % of control | [8] 98 % of control | [9] 88 % of control

Nc1cc(Cl)c(Cl)cc1S(=O)(=O)O
inactive: [4] 101 % of control | [5] 102 % of control | [6] 98 % of control | [7] 98 % of control | [8] 92 % of control | [9] 96 % of control

CCCC(C)OP(=O)(OCC)OC(C)CC (stereo unspecified)
inactive: [4] 100 % of control | [6] 89 % of control

BrC1C2CCC(CC2)C1Br (stereo unspecified)
inactive: [4] 92 % of control | [5] 100 % of control | [6] 92 % of control | [7] 100 % of control | [8] 94 % of control | [9] 96 % of control

Cc1ccc(Cl)cc1NC(=S)Nc1ccccc1
inactive: dose: 100.0 mg/kg/injection, schedule: Q04DX002 (ip), vehicle: Klucel (hydroxypropylcellulose) (HPC) 100 % of control | dose: 200.0 mg/kg/injection, schedule: Q04DX002 (ip), vehicle: Klucel (hydroxypropylcellulose) (HPC) 103 % of control | dose: 400.0 mg/kg/injection, schedule: Q04DX002 (ip), vehicle: Klucel (hydroxypropylcellulose) (HPC) 106 % of control

CC(=O)C(C(C)=O)C(=O)c1ccc2ccccc2c1
inactive: dose: 222.0 mg/kg/injection, schedule: Q01DX Z (ip), vehicle: methylcellulose (MC) 107 % of control | dose: 333.0 mg/kg/injection, schedule: Q01DX Z (ip), vehicle: methylcellulose (MC) 94 % of control | dose: 500.0 mg/kg/injection, schedule: Q01DX Z (ip), vehicle: methylcellulose (MC) 96 % of control

CC(=O)Nc1ccc2scnc2c1
inactive: [1] 112 % of control | [2] 112 % of control | [3] 105 % of control

CN1C2CCC1CC(OC(=O)c1ccc(O)cc1)C2 (stereo unspecified)
inactive: dose: 9.38 mg/kg/injection, schedule: Q01DX001 (ip), vehicle: saline 94 % of control | dose: 18.75 mg/kg/injection, schedule: Q01DX001 (ip), vehicle: saline 102 % of control

Cc1cc(C)c(CCN(C)C)c(C)c1
inactive: [15] 101 % of control | [13] 97 % of control | [14] 91 % of control
